The source of these data is patent publication US4797415A, “Benzofuran derivatives and use thereof for treating hyperuricemia” (Kotobuki Seiyaku Company Limited, priority 1982, dated 1989).

The subject of series [1] is phenol red retention in circulation. Kind of series: Uricosuric activity by phenol red retention test in mice. It is filed as in vivo, male mice. As to conditions: for response vs control in vivo at 200 mg/kg: Mus musculus, 1 h. As to the method: (§1) Blood samples were collected from the retro-orbital plexus into heparinized capillary tubes 60 minutes after the phenol red injection. The retention of phenol red in circulation was determined according to the method described in J. Med. Pharmaceu.
Benzobromarone was administered subcutaneously to mice in an amount of 200 mg./kg. as a control or standard.

The subject of series [2] is phenol red retention. Kind of series: Uricosuric activity by phenol red method in rats. The series is classed as in vivo. As to conditions: p.o. 100 mg/kg. The protocol: as §1
The same test of uricosuric activity was applied to rats.

Series [3] in a line: in vivo. As to conditions: mouse, po, p.o. in mice. The text has this:
In general, the compounds related to this invention have a potent uriosuric activiity and some of them are considered promising for clinical use. The toxicity of these compounds is much lower than that of the typical uricosuric agent: benzbromarone.

[4] abbreviates: po, mice, p.o. 200 mg/kg, 30 min before 75 mg/kg phenol red, blood 60 min after phenol red, read-out: phenol red retention, percentage by comparison with the control group, P.O. (200 mg/kg).
[5] abbreviates: sc, mice, s.c. 200 mg/kg, 30 min before 75 mg/kg phenol red, blood 60 min after phenol red, read-out: phenol red retention, percentage by comparison with the control group, S.C. (200 mg/kg).

Where two headings read alike, the source gives them in different places.

Take `CCc1oc2ccccc2c1C(=O)c1cc(C)c(OCC(=O)O)cc1C` [Compound 39]: in series [1] (setting [4]), the response vs control in vivo at 200 mg/kg was found to be 410 ± 28.6%. In series [2], the “Phenol Red Retention % in Rats 100 mg/kg (p.o.)” value (shortened to “Phenol Red Retention % … (p.o.)”) came out at 175.7 ± 21.6%.
For the molecule `CCc1oc2ccccc2c1C(=O)c1ccc(OCC(=O)O)cc1` [Compound 3, 4-(2-ethyl-3-benzofuroyl)phenoxyacetic acid], the response vs control in vivo at 200 mg/kg in series [1] (setting [4]) is 175 ± 15.5%; in series [1] (setting [5]) it was 169 ± 18.1%. Also, the “Phenol Red Retention % … (p.o.)” value in series [2] was 194.6 ± 29.7%. Also, the LD50 (usually the dose expected to kill half of the subjects tested) in series [3] turned out to be 2110 mg/kg.
In the case of `CCc1oc2ccccc2c1C(=O)c1ccc(OCC(=O)O)c(Cl)c1` [Compound 22, 2-chloro-4-(2-ethyl-3-benzofuroyl)phenoxyacetic acid], the response vs control in vivo at 200 mg/kg in series [1] (setting [4]) turned out to be 190 ± 26.3%; in series [1] (setting [5]), 211 ± 33.3%. In addition, in series [2], the “Phenol Red Retention % … (p.o.)” value was 217.2 ± 17.2%.
On to `CCc1oc2ccccc2c1C(=O)c1cc(Br)c(O)c(Br)c1` [Benzbromarone, benzbromarone, reference compound], for which, in series [1] (sc, read-out: phenol red retention, percentage by comparison with the control group, S.C. (200 mg/kg)), the response vs control in vivo at 200 mg/kg came out at 184%. In addition, the “Phenol Red Retention % … (p.o.)” value in series [2] is on record as 163.9 ± 25.0%. The molecule further yielded an LD50 in series [3] of 361 mg/kg.
Turning to `CCc1oc2ccccc2c1C(=O)c1ccc(OCC(=O)O)c(C)c1C` [Compound 35, 2,3-dimethyl-4-(2-ethyl-3-benzofuroyl)phenoxyacetic acid], the response vs control in vivo at 200 mg/kg in series [1] (setting [4]) was determined as 319 ± 14.3%. In series [2], the “Phenol Red Retention % … (p.o.)” value stood at 269.0 ± 31.0%.
`CCc1oc2ccccc2c1C(=O)c1ccc(OCC(=O)O)c(C)c1` [Compound 25, 2-methyl-4-(2-ethyl-3-benzofuroyl)phenoxyacetic acid]: the response vs control in vivo at 200 mg/kg in series [1] (setting [4]) stood at 200 ± 25%; in series [1] (setting [5]), 189 ± 27.8%. Moreover, the “Phenol Red Retention % … (p.o.)” value in series [2] came to 208.1 ± 27.0%.
Take `CCc1oc2ccccc2c1C(=O)c1ccc(O)c([N+](=O)[O-])c1` [Compound 26, 2-ethyl-3-benzofuranyl 3-nitro-4-hydroxyphenyl ketone]: the “phenol red retention, percentage by comparison with the control group, S.C. (given at a dose of 100 mg/kg)” value in series [1] (mice, s.c. 100 mg/kg (footnote *), 30 min before 75 mg/kg phenol red, blood 60 min after phenol red) is 222.2 ± 27.7%.
